Measured values: patent US20260365653A1, “IRREVERSIBLE MUTEGFR INHIBITORS” (Bayer Aktiengesellschaft, priority 2022, published 2026)

Key:
[1] = biological target: T1, mutEGFR (D770_N771insSVD) (Homo sapiens, UniProt P00533, DUP768-770); assay: Exon20-Mutant-EGFR (D770_N771insSVD) kinase assay (TR-FRET); format: biochemical; details: mutEGFR (D770_N771insSVD) kinase assay IC50, Table 2a; D770_N771insSVD; 2 mM ATP
T1 construct: GST-EGFR #3 (SVD between D770 and N771); made in house; host or cells: Sf9 insect cells (baculovirus)
T1 sequence (P00533 with tags, fused parts or gaps DUP768-770): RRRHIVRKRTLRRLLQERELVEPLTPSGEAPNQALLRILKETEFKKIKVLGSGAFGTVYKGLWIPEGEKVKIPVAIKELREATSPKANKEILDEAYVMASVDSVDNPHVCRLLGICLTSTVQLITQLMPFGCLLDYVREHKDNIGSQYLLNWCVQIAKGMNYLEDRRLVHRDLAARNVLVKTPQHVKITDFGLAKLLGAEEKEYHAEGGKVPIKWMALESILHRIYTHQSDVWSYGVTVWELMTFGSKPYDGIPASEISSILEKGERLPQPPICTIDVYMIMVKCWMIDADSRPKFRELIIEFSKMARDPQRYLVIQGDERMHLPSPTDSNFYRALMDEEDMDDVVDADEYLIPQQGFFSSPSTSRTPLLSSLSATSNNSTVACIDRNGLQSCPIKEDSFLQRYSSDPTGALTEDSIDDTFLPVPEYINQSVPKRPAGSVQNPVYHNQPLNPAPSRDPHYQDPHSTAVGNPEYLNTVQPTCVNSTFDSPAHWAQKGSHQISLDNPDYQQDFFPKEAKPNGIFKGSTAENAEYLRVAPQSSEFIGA

[2] = tested on: BA/F3 (insSVD) cells; assay: Ba/F3-EGFR-insSVD cell survival assay (Cell Titer-Glo); format: cell-based; details: Mus musculus, BaF3, 48 h, Table 3a, cell survival, Cell Titer-Glo, with 10 ng/ml EGF, without IL-3
In short: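 Ba/F3 cells stably expressing retroviral EGFR-insSVD or insSVD T790M, grown without IL-3 on 10 ng/ml EGF, 4000 cells/well. Compound pinned in, 48 h at 37° C. Viability by CellTiter-Glo luminescence.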

[3] = biological target: T2, mutEGFR (D770_N771insNPG, T790) (Homo sapiens, UniProt P00533, INS770NPG/T790M); assay: mutEGFR (D770_N771insNPG, T790) kinase assay; format: biochemical; details: Table 2a, D770_N771insNPG
T2 construct: exact insNPG construct not described; in-house EGFR proteins were N-terminal GST fusions from baculovirus/insect cells (borders R669-A1210 given only for WT, insSVD, insASV)
T2 sequence (P00533 with tags, fused parts or gaps INS770NPG/T790M limits assumed): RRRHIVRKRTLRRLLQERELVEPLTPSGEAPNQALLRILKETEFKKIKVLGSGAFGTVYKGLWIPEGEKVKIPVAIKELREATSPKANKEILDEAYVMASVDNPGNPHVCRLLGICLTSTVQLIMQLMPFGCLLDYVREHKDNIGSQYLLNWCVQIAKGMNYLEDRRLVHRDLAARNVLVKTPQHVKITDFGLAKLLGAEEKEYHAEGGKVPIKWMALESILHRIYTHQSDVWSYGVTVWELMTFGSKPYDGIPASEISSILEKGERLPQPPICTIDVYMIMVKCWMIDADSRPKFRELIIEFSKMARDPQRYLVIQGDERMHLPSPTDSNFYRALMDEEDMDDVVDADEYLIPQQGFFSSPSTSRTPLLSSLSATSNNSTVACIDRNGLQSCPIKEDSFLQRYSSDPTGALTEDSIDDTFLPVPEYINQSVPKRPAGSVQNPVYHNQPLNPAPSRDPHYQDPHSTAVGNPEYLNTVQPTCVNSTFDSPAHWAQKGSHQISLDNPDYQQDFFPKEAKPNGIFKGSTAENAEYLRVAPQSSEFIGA
From the text: The different EGFR proteins used in the biochemical kinase activity inhibition assays were generated inhouse by expression in insect cells using Baculo Virus system and subsequent purification as described in the following paragraphs.
The cDNAs encoding the various protein sequences from human EGFR human (P00533) were optimized for expression in eukaryotic cells and synthesized by the GeneArt Technology at Life Technologies.

IC50 [1] | IC50 [3] | Compound | IC50 [2]
165 nM | 256 nM | Cc1c[nH]c2nccc(-c3c(-c4ccc(Cl)cc4F)nn4c3CN(C(=O)/C=C/CN(C)C)CC4)c12 [Example 57, (2E)-1-[2-(4-chloro-2-fluorophenyl)-3-(3-methyl-1H-pyrrolo[2,3-b]pyridin-4-yl)-6,7-dihydropyrazolo[1,5-a]pyrazin-5(4H)-yl]-4-(dimethylamino)but-2-en-1-one] | 85.7 nM
446 nM | 1300 nM | Cc1c[nH]c2nccc(-c3c(-c4ccc(C(F)(F)F)cc4)nn4c3CN(C(=O)/C=C/CN(C)C)CC4)c12 [Example 58, (2E)-4-(dimethylamino)-1-[3-(3-methyl-1H-pyrrolo[2,3-b]pyridin-4-yl)-2-[4-(trifluoromethyl)phenyl]-6,7-dihydropyrazolo[1,5-a]pyrazin-5(4H)-yl]but-2-en-1-one] | 138 nM
813 nM | 956 nM | COc1ccc(-c2nn3c(c2-c2ccnc4[nH]cc(C)c24)CN(C(=O)/C=C/CN(C)C)CC3)cc1F [Example 59, (2E)-4-(dimethylamino)-1-[2-(3-fluoro-4-methoxyphenyl)-3-(3-methyl-1H-pyrrolo[2,3-b]pyridin-4-yl)-6,7-dihydropyrazolo[1,5-a]pyrazin-5(4H)-yl]but-2-en-1-one] | 488 nM
939 nM | 1410 nM | COc1ccc(-c2nn3c(c2-c2ccnc4[nH]cc(C)c24)CN(C(=O)/C=C/CN(C)C)CC3)cc1 [Example 60, (2E)-4-(dimethylamino)-1-[2-(4-methoxyphenyl)-3-(3-methyl-1H-pyrrolo[2,3-b]pyridin-4-yl)-6,7-dihydropyrazolo[1,5-a]pyrazin-5(4H)-yl]but-2-en-1-one] | 647 nM
2380 nM | 398 nM | Cc1c[nH]c2nccc(-c3c(-c4cccc(C#N)c4)nn4c3CN(C(=O)/C=C/CN(C)C)CC4)c12 [Example 61, 3-{5-[(2E)-4-(dimethylamino)but-2-enoyl]-3-(3-methyl-1H-pyrrolo[2,3-b]pyridin-4-yl)-4,5,6,7-tetrahydropyrazolo[1,5-a]pyrazin-2-yl}benzonitrile] | 922 nM
29.5 nM | 87.6 nM | C=C(CN(C)C)C(=O)N1CCn2nc(-c3ccc(F)cc3)c(-c3ccncc3)c2C1 [Example 62, 2-[(dimethylamino)methyl]-1-[2-(4-fluorophenyl)-3-(pyridin-4-yl)-6,7-dihydropyrazolo[1,5-a]pyrazin-5(4H)-yl]prop-2-en-1-one] | 390 nM
2.64 nM | 9 nM | O=C(/C=C/CN1CCOCC1)N1CCn2nc(-c3ccc(F)cc3)c(-c3ccncc3)c2C1 [Example 63, (2E)-1-[2-(4-fluorophenyl)-3-(pyridin-4-yl)-6,7-dihydropyrazolo[1,5-a]pyrazin-5(4H)-yl]-4-(morpholin-4-yl) but-2-en-1-one] | 221 nM
268 nM | 698 nM | C=C(CN1CCOCC1)C(=O)N1CCn2nc(-c3ccc(F)cc3)c(-c3ccncc3)c2C1 [Example 64, 1-[2-(4-fluorophenyl)-3-(pyridin-4-yl)-6,7-dihydropyrazolo[1,5-a]pyrazin-5(4H)-yl]-2-[(morpholin-4-yl)methyl]prop-2-en-1-one] | 5050 nM
87.2 nM | 222 nM | COC/C=C/C(=O)N1CCn2nc(-c3ccc(F)cc3)c(-c3ccncc3)c2C1 [Example 66, (2E)-1-[2-(4-fluorophenyl)-3-(pyridin-4-yl)-6,7-dihydropyrazolo[1,5-a]pyrazin-5(4H)-yl]-4-methoxybut-2-en-1-one] | 1750 nM
1.22 nM | 3.3 nM | O=C(/C=C/C(F)(F)F)N1CCn2nc(-c3ccc(F)cc3)c(-c3ccncc3)c2C1 [Example 67, (2E)-4,4,4-trifluoro-1-[2-(4-fluorophenyl)-3-(pyridin-4-yl)-6,7-dihydropyrazolo[1,5-a]pyrazin-5(4H)-yl]but-2-en-1-one] | 83.4 nM
5.33 nM | 11.9 nM | O=C(C#CCN1CCOCC1)N1CCn2nc(-c3ccc(F)cc3)c(-c3ccncc3)c2C1 [Example 68, 1-[2-(4-fluorophenyl)-3-(pyridin-4-yl)-6,7-dihydropyrazolo[1,5-a]pyrazin-5(4H)-yl]-4-(morpholin-4-yl) but-2-yn-1-one] | 60.2 nM
1.73 nM | 4.78 nM | CCN(CC)C/C=C/C(=O)N1CCn2nc(-c3ccc(F)cc3)c(-c3ccncc3)c2C1 [Example 69, (2E)-4-(diethylamino)-1-[2-(4-fluorophenyl)-3-(pyridin-4-yl)-6,7-dihydropyrazolo[1,5-a]pyrazin-5(4H)-yl]but-2-en-1-one] | 194 nM
26.1 nM | 90.2 nM | O=C(/C=C/CO)N1CCn2nc(-c3ccc(F)cc3)c(-c3ccncc3)c2C1 [Example 70, (2E)-1-[2-(4-fluorophenyl)-3-(pyridin-4-yl)-6,7-dihydropyrazolo[1,5-a]pyrazin-5(4H)-yl]-4-hydroxybut-2-en-1-one] | 862 nM
0.907 nM | 3.09 nM | CCN(C)C/C=C/C(=O)N1CCn2nc(-c3ccc(F)cc3)c(-c3ccncc3)c2C1 [Example 71, (2E)-4-[ethyl(methyl)amino]-1-[2-(4-fluorophenyl)-3-(pyridin-4-yl)-6,7-dihydropyrazolo[1,5-a]pyrazin-5(4H)-yl]but-2-en-1-one] | 120 nM
0.211 nM | 0.3 nM | CN(C)CC#CC(=O)N1CCn2nc(-c3ccc(Cl)cc3F)c(-c3ccncc3)c2C1 [Example 72, 1-[2-(4-chloro-2-fluorophenyl)-3-(pyridin-4-yl)-6,7-dihydropyrazolo[1,5-a]pyrazin-5(4H)-yl]-4-(dimethylamino)but-2-yn-1-one] | 17.9 nM
1.09 nM | 5.1 nM | O=C(/C=C/CF)N1CCn2nc(-c3ccc(Cl)cc3F)c(-c3ccncc3)c2C1 [Example 73, (2E)-1-[2-(4-chloro-2-fluorophenyl)-3-(pyridin-4-yl)-6,7-dihydropyrazolo[1,5-a]pyrazin-5(4H)-yl]-4-fluorobut-2-en-1-one] | 61 nM
0.183 nM | 0.807 nM | O=C(/C=C/C(F)F)N1CCn2nc(-c3ccc(Cl)cc3F)c(-c3ccncc3)c2C1 [Example 74, (2E)-1-[2-(4-chloro-2-fluorophenyl)-3-(pyridin-4-yl)-6,7-dihydropyrazolo[1,5-a]pyrazin-5(4H)-yl]-4,4-difluorobut-2-en-1-one] | 34 nM
0.197 nM | 0.995 nM | O=C(/C=C/Cl)N1CCn2nc(-c3ccc(Cl)cc3F)c(-c3ccncc3)c2C1 [Example 75, (2E)-3-chloro-1-[2-(4-chloro-2-fluorophenyl)-3-(pyridin-4-yl)-6,7-dihydropyrazolo[1,5-a]pyrazin-5(4H)-yl]prop-2-en-1-one] | 135 nM
30.3 nM | 77.3 nM | CN1CC=C(C(=O)N2CCn3nc(-c4ccc(Cl)cc4F)c(-c4ccncc4)c3C2)C1 [Example 76, [2-(4-chloro-2-fluorophenyl)-3-(pyridin-4-yl)-6,7-dihydropyrazolo[1,5-a]pyrazin-5(4H)-yl](1-methyl-2,5-dihydro-1H-pyrrol-3-yl) methanone] | 666 nM
0.347 nM | 1.6 nM | O=C(/C=C/CN1CCC1)N1CCn2nc(-c3ccc(Cl)cc3F)c(-c3ccncc3)c2C1 [Example 77, (2E)-4-(azetidin-1-yl)-1-[2-(4-chloro-2-fluorophenyl)-3-(pyridin-4-yl)-6,7-dihydropyrazolo[1,5-a]pyrazin-5(4H)-yl]but-2-en-1-one] | 25.9 nM
3.86 nM | 15.4 nM | O=C(/C=C/CF)N1CCn2nc(-c3ccc(F)cc3)c(-c3ccncc3)c2C1 [Example 78, (2E)-4-fluoro-1-[2-(4-fluorophenyl)-3-(pyridin-4-yl)-6,7-dihydropyrazolo[1,5-a]pyrazin-5(4H)-yl]but-2-en-1-one] | 115 nM
1.47 nM | 2.51 nM | O=C(/C=C/CN1CCCC1)N1CCn2nc(-c3ccc(F)cc3)c(-c3ccncc3)c2C1 [Example 79, (2E)-1-[2-(4-fluorophenyl)-3-(pyridin-4-yl)-6,7-dihydropyrazolo[1,5-a]pyrazin-5(4H)-yl]-4-(pyrrolidin-1-yl) but-2-en-1-one] | 62.9 nM
0.976 nM | 3.53 nM | CO[C@H]1CCN(C/C=C/C(=O)N2CCn3nc(-c4ccc(F)cc4)c(-c4ccncc4)c3C2)C1 [Example 83, (2E)-1-[2-(4-fluorophenyl)-3-(pyridin-4-yl)-6,7-dihydropyrazolo[1,5-a]pyrazin-5(4H)-yl]-4-[(3S)-3-methoxypyrrolidin-1-yl]but-2-en-1-one] | 132 nM
13.4 nM | 50.6 nM | O=C(/C=C/CN1CC(F)(F)C1)N1CCn2nc(-c3ccc(F)cc3)c(-c3ccncc3)c2C1 [Example 84, (2E)-4-(3,3-difluoroazetidin-1-yl)-1-[2-(4-fluorophenyl)-3-(pyridin-4-yl)-6,7-dihydropyrazolo[1,5-a]pyrazin-5(4H)-yl]but-2-en-1-one] | 1230 nM
